Patent US20080318775A1, “Safening of pesticides with cyclopropenes” (priority 2007, published 2008)
Read-outs that look alike come from different tables or passages of the source.

Experiments:
[1] = tested on: GLYPHOSATE-resistant soybeans; settings: in vivo
[2] = tested on: GLYPHOSATE-resistant soybeans; assay: Plant height of soybeans sprayed with 2% GLYPHOSATE with or without 1-MCP
[3] = tested on: GLYPHOSATE-resistant soybeans; assay: Plant height of soybeans sprayed with 0.5% GLYPHOSATE with or without 1-MCP
[4] = tested on: GLYPHOSATE-resistant soybeans; assay: Plant height of soybeans sprayed with 0.05% PHYSAN 20 fungicide/antimicrobial agent with or without 1-MCP; assay type: in vivo; settings: 10 ppm 1-MCP with 0.05% PHYSAN 20; plant height after 21 days
[5] = tested on: GLYPHOSATE-resistant soybeans; settings: in vivo; remark: listed apart in the source

SMILES: CNC(=O)Oc1cccc2ccccc12 [CARBARYL, reference compound]
- Plant Height [1]: 112.8

SMILES: O=C(O)CNCP(=O)(O)O [GLYPHOSATE, reference compound]
- Plant Height ([2]; greenhouse, sprayed to run off at second true leaves, 2% GLYPHOSATE, 10 ppm 1-MCP (as α-cyclodextrin complex), adjuvant 0.1% Quillaja Saponin, 21 days after spray, untreated control 126): 112.9
- Plant Height ([3]; greenhouse, sprayed to run off at second true leaves, 0.5% GLYPHOSATE, 10 ppm 1-MCP (as α-cyclodextrin complex), adjuvant 0.1% Quillaja Saponin, 21 days after spray, untreated control 126): 112.1

SMILES: CC1=CC1 [1-MCP, 1-methylcyclopropene]
- Effect compared to the fungicide-treated plants (in words) [4]: positive effect
- Effect on the negative effect of the fertilizer on plant growth (in words) [5]: able to alleviate some of that effect
- Effect on setback caused by the insecticide (in words) [1]: able to mediate some of the setback caused by the insecticide
- Effect on plant height / effect of the herbicide (in words) ([2]; 10 ppm 1-MCP with 2% GLYPHOSATE, with or without 0.1% Quillaja Saponin adjuvant, plant height after 21 days): improved the height
- Effect on growth reduction caused by the herbicide (in words) ([3]; 10 ppm 1-MCP with 0.5% GLYPHOSATE, plant height after 21 days): able to prevent the growth reduction caused by the herbicide
